Read-outs that look alike come from different tables or passages of the source.

Series [1] has as its target T1, phosphorylated Tie-2 (aa 775-1122) (Homo sapiens, UniProt Q02763).
T1 construct: 4 to 12 nM phosphorylated Tie-2 (aa 775-1122); made in house; host or cells: insect cells
The experiment in a line: TIE-2 spectrophotometric assay. Type of series: biochemical. To be noted: for inhibition at 1 µM: read-out: % Inhibition @ 1 µM Tie2-P; for inhibition at 10 µM: read-out: % Inhibition Tie2-P, compound tested at 10 µM. As to the method:
This construct also carries a R774M mutation, which serves as the initiating methionine residue in translation.
The kinase-catalyzed production of ADP from ATP that accompanies phosphoryl transfer to the random copolymer poly(Glu4 Tyr) was coupled to the oxidation of NADH through the activities of pyruvate kinase (PK) and lactate dehydrogenase (LDH). NADH conversion to NAD* was monitored by the decrease in absorbance at 340 nm (ε = 6.22 cm^-1mM^-1) using a Beckman DU650 spectrophotometer. Typical reaction solutions contained 1 mM phosphoenolpyruvate, 0.24 mM NADH, 40 mM MgCl2, 5 mM DTT, 2.9 mg/mL poly(Glu4Tyr), 0.5 mM ATP, 15 units/mL PK, 15 units/mL LDH in 100 mM HEPES, pH 7.5. […]

For series [2], the target named is T2, human CHK1 (FL-CHK1) (Homo sapiens, UniProt O14757).
T2 construct: C-terminally His-tagged full-length human CHK1 (FL-CHK1) was expressed using the baculovirus/insect cell system; made in house; host or cells: baculovirus/insect cell system
T2 sequence (O14757 1-476): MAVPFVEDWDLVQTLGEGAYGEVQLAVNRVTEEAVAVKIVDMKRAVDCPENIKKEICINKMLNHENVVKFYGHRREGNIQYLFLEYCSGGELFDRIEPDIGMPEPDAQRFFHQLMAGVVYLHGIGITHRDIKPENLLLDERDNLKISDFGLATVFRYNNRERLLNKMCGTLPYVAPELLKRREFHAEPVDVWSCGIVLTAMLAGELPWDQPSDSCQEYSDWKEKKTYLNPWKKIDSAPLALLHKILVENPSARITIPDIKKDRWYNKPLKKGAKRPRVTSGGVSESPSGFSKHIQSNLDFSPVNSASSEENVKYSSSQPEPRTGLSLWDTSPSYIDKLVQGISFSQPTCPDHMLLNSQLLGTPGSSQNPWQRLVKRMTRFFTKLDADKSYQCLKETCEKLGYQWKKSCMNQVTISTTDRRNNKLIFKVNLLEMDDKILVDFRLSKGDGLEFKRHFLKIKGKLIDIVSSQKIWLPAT
The series can be described thus: CHK1 coupled spectrophotometric assay. The format is biochemical. The text has this: CHK1 Construct for Assay: C-terminally His-tagged full-length human CHK1 (FL-CHK1) was expressed using the baculovirus/insect cell system. […] The protein was purified by conventional chromatographic techniques.
The production of ADP from ATP that accompanies phosphoryl transfer to the synthetic substrate peptide Syntide-2 ([…]) was coupled to oxidation of NADH using phosphoenolpyruvate (PEP) through the actions of pyruvate kinase (PK) and lactic dehydrogenase (LDH). The oxidation of NADH was monitored by following the decrease of absorbance at 340 nm (∈340 = 6.22 cm^-1 mM^-1) using a HP8452 spectrophotometer. […] Assays were initiated with 10 nM of FL-CHK1. Ki values were determined by measuring initial enzyme activity in the presence of varying concentrations of test compounds. The data were analyzed using Enzyme Kinetic and Kaleidagraph software.

For series [3], the system named is human umbilical vein endothelial cells (HUVEC). The experiment in a line: HUVEC proliferation assay (VEGF-stimulated, MTT). To be noted: Homo sapiens, HUVEC, Table 1. The format is cell-based.
Series [4] addresses human FGF-R1 (Homo sapiens, UniProt P11362, C488A/C584S/L457V). The series can be described thus: FGF-R spectrophotometric assay. The format is biochemical. On the procedure: The spectrophotometric assay was carried out as described above for VEGF-R2, except for the following changes in concentration: FGF-R = 50 nM, ATP = 2 mM, and poly(E4Y1) =15 mM.
For series [5], the target named is LCK tyrosine kinase (Homo sapiens, UniProt P06239, C224D/P223M). The series can be described thus: LCK spectrophotometric assay. Type of series: biochemical. On the procedure: The spectrophotometric assay was carried out as described above for VEGF-R2, except for the following changes in concentration: LCK = 60 nM, MgCl2 = 0 mM, poly(E4Y1) = 20 mM.
Chain of LCK tyrosine kinase (P06239 223-509 P223M/C224D): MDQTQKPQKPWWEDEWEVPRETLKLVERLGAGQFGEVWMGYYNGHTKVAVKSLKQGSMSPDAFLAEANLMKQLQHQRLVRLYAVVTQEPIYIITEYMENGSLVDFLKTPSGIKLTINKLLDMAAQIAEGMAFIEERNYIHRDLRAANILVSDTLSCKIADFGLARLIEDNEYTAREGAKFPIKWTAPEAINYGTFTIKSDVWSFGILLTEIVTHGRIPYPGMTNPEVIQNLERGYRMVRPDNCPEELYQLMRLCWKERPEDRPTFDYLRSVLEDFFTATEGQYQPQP
The conditions of series [6]: mouse, in vivo.
The test system of series [7] is VEGF dependent retinal neovascularization. The experiment in a line: Neonatal rat model of retinopathy of prematurity. Type of series: in vivo. To be noted: Model ROP. As to the method:
A second model of VEGF dependent retinal neovascularization was employed to evaluate the activities of this series of compounds. […] The animals are exposed for 24 hours to a concentration of 50% oxygen followed by 24 hours at a concentration of 10% oxygen. This alternating cycle of hyperoxia followed by hypoxia is repeated 7 times after which the animals are removed to room air (P14). Compounds are administered via intravitreal injection upon removal to room air and the animals are sacrificed 6 days later (P20). The isolated retinas are then isolated, stained mounted and analyzed as detail above in the development model. The effectiveness was also graded as is described for the development model.

Setting [8] is: Table 5, 1 µM, bold values spectrophotometric assay, non-bolded DELFIA assay (bold not visible here).
Setting [9] is: + albumin, read-out: HUVEC + albumin IC50.
[10] abbreviates: Table 1, compound concentration 1 µM, read-out: FGF-P* (% inhibition).
The mark [11] stands for this setting: Table 1, compound concentration 1 µM, read-out: Lck-P* (% inhibition).
[12] abbreviates: intravitreal, 10 mg/ml, vehicle PEG/water 70:30.

T1 sequence (Q02763 775-1122): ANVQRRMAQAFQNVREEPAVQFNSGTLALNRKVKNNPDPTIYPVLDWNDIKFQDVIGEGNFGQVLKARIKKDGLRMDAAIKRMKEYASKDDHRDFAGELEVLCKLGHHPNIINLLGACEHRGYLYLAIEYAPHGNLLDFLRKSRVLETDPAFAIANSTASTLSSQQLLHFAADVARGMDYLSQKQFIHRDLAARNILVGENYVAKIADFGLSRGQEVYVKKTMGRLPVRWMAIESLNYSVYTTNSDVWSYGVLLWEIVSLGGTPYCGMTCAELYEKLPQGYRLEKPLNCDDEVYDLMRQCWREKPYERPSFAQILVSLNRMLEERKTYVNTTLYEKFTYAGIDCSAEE
Chain of human FGF-R1 (P11362 456-766 L457V/C488A/C584S): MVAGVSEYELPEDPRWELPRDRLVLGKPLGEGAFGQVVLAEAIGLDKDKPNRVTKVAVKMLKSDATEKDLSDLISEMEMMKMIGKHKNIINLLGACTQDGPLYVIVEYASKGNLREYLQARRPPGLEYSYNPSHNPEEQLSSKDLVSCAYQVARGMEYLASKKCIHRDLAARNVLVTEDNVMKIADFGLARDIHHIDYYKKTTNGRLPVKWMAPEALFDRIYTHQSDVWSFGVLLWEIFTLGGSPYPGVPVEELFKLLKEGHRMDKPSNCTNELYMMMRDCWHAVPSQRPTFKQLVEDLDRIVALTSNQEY

Take `Brc1cccc(Oc2ccc3c(/C=C/c4ccccc4)n[nH]c3c2)c1` [8(d), 6-(3-Bromo-phenoxy)-3-styryl-1H-indaxole]: the inhibition at 1 µM in series [1] is 10%. In addition, the Ki in series [2] (Table 1, read-out: CHK -1* (Ki)) is 82 nM.

As to `Oc1ccc(Oc2ccc3c(/C=C/c4ccccc4)n[nH]c3c2)cc1` [9(b), 3-(E-styryl)-6-[4-hydroxyphenoxy]-1H-indazole], the inhibition at 10 µM in series [1] is 88%.

In the case of `CN(c1cccc(NC(=O)OCc2ccccc2)c1)c1ccc2c(/C=C/c3ccccc3)n[nH]c2c1` [12(c), {3-[Methyl-(3-styryl-1H-indazol-6-yl)-amino]-phenyl}-carbamic acid benzyl ester], the inhibition at 1 µM in series [1] (setting [8]) is 17%.

For the molecule `Cc1cccc(C(=O)Nc2cccc(N(C)c3ccc4c(/C=C/c5ccc6c(c5)OCO6)n[nH]c4c3)c2)c1` [16(b), N-(3-{[3-(2-Benzo[1,3]dioxol-5-yl-vinyl)-1H-indazol-6-yl]-methyl-amino}-phenyl)-3-methyl-benzamide], the inhibition at 1 µM turned out to be 52% in series [1] (setting [8]), 73% in series [4] (setting [10]) and 22% in series [5] (setting [11]). The IC50 is 140 nM in series [3] (setting [9]) and 4.7 nM in series [3] (read-out: HUVEC IC50).

For the molecule `CC(=O)Nc1cccc(C(=O)c2ccc3c(/C=C/c4ccccc4)n[nH]c3c2)c1` [19(a), N-[3-(3-Styryl-1H-indazole-6-carbonyl)-phenyl]-acetamide], the inhibition at 1 µM was determined as 18% in series [1] (setting [8]), 92% in series [4] (setting [10]) and 16% in series [5] (setting [11]). Further, in series [3] (read-out: HUVEC IC50), the IC50 came out at 44 nM.

For the molecule `Cc1cnc(C(=O)Nc2cccc(C(=O)c3ccc4c(/C=C/c5ccccc5)n[nH]c4c3)c2)s1` [19(d), 5-Methyl-thiazole-2-carboxylic acid [3-(3-styryl-1H-indazole-6-carbonyl)-phenyl]-amide], the inhibition at 1 µM in series [1] (setting [8]) was 15%; in series [4] (setting [10]), 39%; in series [5] (setting [11]), 33%. For the same molecule, the IC50 in series [3] (setting [9]) turned out to be 34 nM; in series [3] (read-out: HUVEC IC50), 6.8 nM.

Take `C=C(c1cccc(NC(=O)c2ncc(C)s2)c1)c1ccc2c(/C=C/c3ccccc3)n[nH]c2c1` [22(a), 6-(1-(3-(5-Methyl-thiaxole-2-carboxoylamido)phenyl)-vinyl)-3-styryl-1H-indazole]: the inhibition at 1 µM in series [1] (setting [8]) was 8%. The IC50 in series [3] (read-out: HUVEC IC50) came to 12 nM.

For `COc1cc(-c2ccc3c(-c4nc5ccccc5[nH]4)n[nH]c3c2)c(C)cc1O` [24(a), 4-[3-(1-H-Benzoimidazol-2-yl)-1-H-indazol-6-yl]-2-methoxy-5-methyl-phenol], the inhibition at 10 µM in series [1] is 91%. For the same molecule, the figures for the inhibition at 1 µM in series [4] (read-out: FGF* (% inhibition)) and in series [5] (read-out: Lck* (% inhibition)) were 72% and 67%, respectively.

For `Cc1cc(O)ccc1-c1ccc2c(-c3nc4ccccc4[nH]3)n[nH]c2c1` [24(b), 4-[3-(1-H-Benzoimidazol-2-yl)-1-H-indazol-6-yl]-3-methylphenol], the inhibition at 10 µM in series [1] came to 92%. Also, the inhibition at 1 µM in series [4] (read-out: FGF* (% inhibition)) is 88%; in series [5] (read-out: Lck* (% inhibition)) it was 96%.

On to `Cc1cc(O)c(Cl)cc1-c1ccc2c(-c3nc4ccccc4[nH]3)n[nH]c2c1` [24(c), 4-[3-(1-H-Benzoimidazol-2-yl)-1-B-indazol-6-yl]-2-chloro-5-methyl-phenol], for which the inhibition at 1 µM came to 94% in series [1], 89% in series [4] (read-out: FGF* (% inhibition)) and 93% in series [5] (read-out: Lck* (% inhibition)).

In the case of `O=C(c1cccc(NC(=O)c2cccc3[nH]ccc23)c1)c1ccc2c(/C=C/c3ccccn3)n[nH]c2c1` [41 (d)], in series [6] (ip, 25 mg/kg, pH 2.3), the AUCleast is 10324 ng·h/mL and the T1/2 came out at 2.8 h. In series [6] (po, 50 mg/kg, pH 2.3), this molecule showed an AUCleast of 7072 ng·h/mL and a T1/2 of 1.5 h. Also, the “% Inhibition” value in series [7] (intravitreal, 1 mg/ml, vehicle PEG/water 70:30) is given as 0%.

In the case of `C=C(c1ccccc1)c1ccc2c(/C=C/c3ccccc3)n[nH]c2c1` [Example 10, 6-(1-Phenyl-vinyl)-3-styryl-1H-indazole], in series [1], the inhibition at 10 µM came to 20%. In addition, in series [3] (read-out: HUVEC IC50), the half-maximal inhibitory concentration (IC50) is more than 700 nM.

On to `CN(c1cccc(N)c1)c1ccc2c(/C=C/c3ccccc3)n[nH]c2c1` [Example 11, N-Methyl-N-(3-styryl-1H-indazol-6-yl)-benzene-1,3-diamine], for which the inhibition at 1 µM in series [1] (setting [8]) stood at 40%.

For `O=C(c1ccccc1)c1ccc2c(/C=C/c3ccccc3)n[nH]c2c1` [Example 17, Phenyl-(3-styryl-1H-indazol-6-yl)-methanone], the inhibition at 1 µM in series [1] came to 50%.

`C=C(c1cccc(N)c1)c1ccc2c(/C=C/c3ccccc3)n[nH]c2c1` [Example 21, 6-(1-(3-Aminophenyl)-vinyl)-3-styryl-1H-indazole]: in series [1] (setting [8]), the inhibition at 1 µM stood at 27%. Further, the IC50 in series [3] (read-out: HUVEC IC50) is more than 700 nM.

As to `CCn1nc(C)cc1C(=O)Nc1cccc(C(=O)c2ccc3c(/C=C/c4ccccn4)n[nH]c3c2)c1.Cl` [Example 59(a), 6-[3-((1-Ethyl-3-methyl-1H-pyrazol-5-yl)carboxamido)benzoyl]-3-E-[2-(pyridin-2-yl)ethenyl]-1H-indazole hydrochloride], the T1/2 in series [6] (po, 25 mg/kg) was 1.6 h. The “% Inhibition” value in series [7] (1 mg/ml, vehicle 0.5%CMC) stood at 19%; in series [7] (10 mg/ml, vehicle C.5%CMC), 41%.

In the case of `COc1cc(O)ccc1-c1ccc2c(-c3nc4cc(N(C)C)ccc4[nH]3)n[nH]c2c1` [Reference Example 25(h), 3-(5-Dimethylamino-1H-benzoimidazol-2-yl)-6-(2-methoxy-4-hydroxy-phenyl)-1H-indazole], the inhibition at 1 µM amounted to 91% in series [4] (read-out: FGF* (% inhibition)), 86% in series [2] (read-out: CHK1* (% inhibition)) and 87% in series [5] (read-out: Lck* (% inhibition)).

As to `O=C(c1cccc(NC(=O)c2cccc3[nH]ccc23)c1)c1ccc2c(/C=C/c3ccccn3)n[nH]c2c1` [Reference Example 41(d), 6-[3-(indol-4-ylcarboxamido)benzoyl]-3-E-[2-(pyridin-2-yl)ethenyl]-1H-indazole], the IC50 in series [3] (setting [9]) turned out to be 6.4 nM. The IC50 in series [3] (read-out: HUVEC IC50) is 0.9 nM. Also, in series [7] (setting [12]), the “% Inhibition” value is listed as 59% and the “Initial Evaluation” value was “+++ (three pluses give to retinas with near total regression (approximately 75% or greater))”.

By inhibition is commonly meant the share of the control response that was lost under treatment. For orientation: Ki means the equilibrium dissociation constant of an inhibitor or competing ligand from its target. By IC50 is commonly meant the midpoint of a concentration-inhibition curve. What is called % Inhibition is how much of the control response was suppressed.

Source of the values: patent publication EP1614683B1, “Indazole compounds and pharmaceutical compositions for inhibiting protein kinases, and methods for their use” (priority 1999, dated 2001).
